Assay [1] deals with intracellular parasites (L. mexicana amastigotes). Briefly: Electron microscopy of treated intracellular parasites. In kind it is cell-based, Leishmania mexicana. The conditions noted are these: 100 μM, 2 h. On the procedure: Intracellular parasites were co-cultured, as previously described herein, by treating a 100 μM concentration of each pure compound for 2 h and suspending them in glutaraldehyde. Samples were further processed in an electron microscopy unit as follows: Incubation steps were carried out on a Lab-Line orbital shaker operating at 700 rpm (Barnstead/Thermolyne, Melrose Park, Ill.). After the initial fixation in 3% buffered glutaraldehyde, cell pellets were washed twice with sodium cacodylate buffer (pH 7.4, 10 minutes each) and spun down after each wash at 1500 rpm for 5 min. Cell samples were then post-fixed in 1% osmium tetroxide in sym-collidine buffer (pH 7.6) for 1 h at room temperature. Following two washes with sym-collidine buffer (10 min each) the cell pellet was stained with a saturated aqueous uranyl acetate solution (pH 3.3) for 1 h. Cell pellets were dehydrated in a graded EtOH series up to absolute (10 min each). Acetone was used as the transitional solvent, two changes for 10 min each. The cell suspensions were infiltrated overnight with a 1:1 mixture of acetone and Spurr's epoxy resin (Electron Microscopy Sciences, Fort Washington, Pa.). Finally, cell pellets were placed into BEEM™ embedding capsules containing 100% Spurr's resin. Polymerization of epoxy blocks was carried out at 70° C. overnight. Polymerized blocks were sectioned with a Leica Ultraut UCT ultramicrotome (Leica Microsystem GmbH, Wein, Austria). Methylene Blue-Basic Fuschin stained semi-thin (750 nm) sections were evaluated and two representative areas were thin-sectioned for ultrastructural examination. Ultrathin (80 nm) sections were collected on 200 mesh copper grids (Electron Microscopy Sciences) and post-stained with lead citrate (3 min).

The test system of assay [2] is promastigotes of L. mexicana. Briefly: Promastigote assay (L. mexicana, flow cytometry with propidium iodide). Format: cell-based, Leishmania mexicana. The conditions noted are these: for antileishmanial activity against promastigotes (in words): 48 h exposure; for IC50: Leishmania mexicana, 48 h, linear regression from 1, 10, 50 and 100 μg/mL. On the procedure: Leishmania mexicana (MNYC/BZ/62/M379) was maintained by serial passage of amastigotes inoculated subcutaneously into the shaven rumps of 129SvE mice and was obtained by in vitro culture of amastigotes in RPMI-1640 supplemented with 10% fetal calf serum (FCS, Sigma-Aldrich Corporation, St. Louis, Mo.) and incubated at 28° C. All work including experimental animals was approved by the Institutional Animal Care and Use Committee (IACUC) of The Ohio State University.
One million log phase promastigotes of L. mexicana were seeded in 1 mL of complete RPMI-1640 medium, and parasite numbers, and their mobility and morphology were measured from 24 and 48 h. This was performed by flow cytometry measurements using experimental and control groups of parasites stained with propidium iodide and with Quillaja saponaria saponin as positive control, as reported in the literature. The test compounds isolated from P. andrieuxii were compared with a positive control: sodium stibogluconate, a pentavalent antimonial drug.

In assay [3] the test system is L. mexicana amastigotes in bone marrow-derived macrophages. Briefly: Amastigote assay in infected bone marrow-derived macrophages. In kind it is cell-based, Leishmania mexicana. The conditions noted are these: for antileishmanial activity against the amastigote stage (in words): 48 h treatment; for IC50: Leishmania mexicana, BMDM, in Mus musculus, 48 h, read-out: Amastigote IC50, 48 hours, infected BMDM from C57BL/6 mice. An excerpt:
Bone marrow derived macrophages were obtained from C57BL/6 mice. Bone marrow-derived macrophages (BMDM) (0.5×10^6) were adhered on top of glass rounded coverslips deposited at the bottom of individual plate's well (24 well tissue culture plate, Corning, Inc.). Next, macrophages were infected overnight with 2.5×10^6 stationary phase promastigotes of the L. mexicana (ratio 5:1). After this period, cells were extensively washed with Hank's balanced salt solution (HBSS) to eliminate non-phagocytosed parasites, and, after treatment with test compounds for 48 hours, cells were stained with Giemsa stain (Sigma). In each experiment, infection rates were recorded by counting the number of parasites in 100 macrophages on each slide in triplicate in a blinded fashion.

The subject of assay [4] is splenocytes stimulated with L. donovani antigen. Briefly: Splenocyte T cell proliferation (Alamar blue) and cytokine ELISA after L. donovani antigen stimulation. The conditions noted are these: liposomal preparation. In kind it is in vivo, BALB/c mice. As to the method:
One week after the treatment, the mice were euthanized and parasite loads in the liver and spleen were determined. Parasite loads in the spleen and liver were quantified as previously described (Murray, H. W. 2000. Infect Immun. 68: 6294-6299). Briefly, the liver and spleen impression smears were stained using Giemsa and parasite loads we quantified microscopically. LDU is determined by the number of amastigotes per 1000 nuclei multiplied by the weight (gm) of the liver or spleen. At this time, spleen cell suspensions were prepared and these cells were stimulated in vitro with 20 microgram/ml of Leishmania donovani antigen for 48-72 hrs to stimulate lymphocyte release. Proliferation of spleen cells were determined by Alamar blue assays and levels of cytokines including IFN-gamma in supernatant were quantified by ELISA using commercially available reagents from Biolegend and BD Biosciences.
T cell proliferation was determined as previously described (Rosas, L. E., et al., 2006. Am. J. Pathol. 168: 158-169.). Briefly, 5×10^5 cells were added in quadruplicate to the wells of sterile 96-well, flat-bottom tissue culture plates and stimulated with freeze-thawed L. donovani Ag (20 μg/ml). The proliferation responses were measured by Alamar blue assay (Ansar-Ahmed, A., et al., 1994. J. Immunol. Methods 170: 211-214.). Supernatants were collected after 72 hours of incubation at 37° C. and analyzed for the production of IFN-γ and IL-10 by standard ELISA methods (BD Pharmingen, Inc., San Diego, Calif.).

For assay [5], the system named is Leishmania donovani (Strain LV9). Briefly: In vivo activity of liposomal preparation of compound 1, parasite loads in liver and spleen. More on the design: species or system BALB/c mice. The conditions noted are these: 46.1 μg compound 1, tail vein, one week after treatment. As to the method:
Liposomes were made by rehydration of a lipid cake. First, hydrogenated soy phosphatidylcholine (Avanti Polar Lipids, Inc., Alabaster, Ala.), cholesterol (Avanti Polar Lipids), 1,2-distearoyl-sn-glycero-3-[phospho-rac-(1-glycerol)] (“DSPG”; Avanti Polar Lipids,), and α-tocopherol (Sigma-Aldrich Corporation, St. Louis, Mo.) were dissolved in a chloroform and methanol (9:1, v/v). Compound 1 was dissolved in the lipid solution at a weight ratio of compound 1 to lipid of 1:9 (i.e. for clarity, the solution comprised 10% by weight of compound 1 and 90% by weight of the lipid solution). The solution was placed on at rotary evaporator for about 30 minutes and the liquid was completely evaporated. The lipids were reconstituted into liposomes in deionized water (3 mL) for 30 minutes in a 60° C. water bath, followed by 3 freeze-thaw cycles. […] Loading of liposomes was verified and quantified by HPLC. […]
One week after the treatment, the mice were euthanized and parasite loads in the liver and spleen were determined. Parasite loads in the spleen and liver were quantified as previously described (Murray, H. W. 2000. Infect Immun. 68: 6294-6299). Briefly, the liver and spleen impression smears were stained using Giemsa and parasite loads we quantified microscopically. LDU is determined by the number of amastigotes per 1000 nuclei multiplied by the weight (gm) of the liver or spleen. […]

Setting [6] is: 48 hours in culture, read-out: Promastigote IC50.

Entries after “also recorded” stand apart in the source; their conditions may differ. Read-outs that look alike come from different tables or passages of the source. A value given as a limit tells only on which side of the number the result lay.

As to `CC(=O)C1=CC[C@H]2[C@@H]3CCC4=CC(=O)CC[C@]4(C)[C@H]3C[C@@H](O)[C@]12C` [Compound 15, 6,7-dihydroneridienone], the “electron microscopy findings in intracellular parasites” value (“electron microscopy findings” below) in assay [1] was “morphological abnormalities and destruction of the amastigotes”. The “antileishmanial activity against promastigotes (in words)” value in assay [2] is “potent; also recorded: inhibitory effects”.

For the compound `CC[C@H](CC[C@@H](C)[C@H]1CC[C@H]2[C@@H]3CCC4=CC(=O)CC[C@]4(C)[C@H]3CC[C@]12C)C(C)C` [Compound 6, stigmast-4-en-3-one], the “antileishmanial activity against promastigotes (in words)” value in assay [2] was “inactive”. Also, the “antileishmanial activity against the amastigote stage (in words)” value in assay [3] is “inactive”.

As for `C=C(CCC=C(C)C)[C@H]1CC[C@H]2[C@@H]3CC=C4C[C@@H](O)CC[C@]4(C)[C@H]3CC[C@]12C` [Compound 7, cholest-5,20,24-trien-3β-ol], the “antileishmanial activity against promastigotes (in words)” value in assay [2] was “inactive”. In addition, in assay [2] (setting [6]), the IC50 was greater than 262 µM. Also, in assay [3], the “antileishmanial activity against the amastigote stage (in words)” value is listed as “significant activity; also recorded: active” and the IC50 amounted to 14.5 µM.

Turning to `C=C(CCC=C(C)C)[C@H]1CC[C@H]2[C@@H]3CCC4=CC(=O)CC[C@]4(C)[C@H]3CCC12C` (stereo in doubt) [Compound 1, (8S,9S,10R,13R,14S,17R)-cholest-4,20,24-trien-3-one], in assay [1], the “electron microscopy findings” value is “morphological abnormalities and destruction of the amastigotes”. For the same compound, in assay [4] (Leishmanial antigen stimulation), the “levels of IL-10 secreted from splenocytes” value was “no significant change”. In addition, in assay [4] (Leishmanial antigen stimulation, P value<0.01), the “secretion of IFN-γ from splenocytes” value is listed as “significant increase”. The “T cell proliferation of splenocytes upon Leishmanial antigen stimulation” value in assay [4] (vs group without compound 1, P value<0.0001) is on record as “significant increase”. Also, in assay [5], the “parasite load in hepatic cells” value is “decreased parasite load” and the “parasite load in splenic cells” value is reported as “decreased parasite load”. In addition, in assay [2], the “activity relative to cholest-4-en-3-one (4), promastigote bioassay” value is given as “almost three times more active” and the “antileishmanial activity against promastigotes (in words)” value is reported as “significant leishmanicidal activity; also recorded: inhibitory effects”. In addition, the IC50 in assay [2] (setting [6]) was 30 µM. In addition, the IC50 in assay [3] was 3.3 µM.

For `CC(C)CCC[C@@H](C)[C@H]1CC[C@H]2[C@@H]3CCC4=CC(=O)CC[C@]4(C)[C@H]3CC[C@]12C` [Compound 4, cholest-4-en-3-one], the “electron microscopy findings” value in assay [1] was “morphological abnormalities and destruction of the amastigotes”. Further, the “antileishmanial activity against promastigotes (in words)” value in assay [2] is reported as “inhibitory effects”. The IC50 turned out to be 81 µM in assay [2] (setting [6]) and 0.03 µM in assay [3]. Also, the “potency relative to pentostam, amastigote stage” value in assay [3] (ratio of IC50 values) is reported as roughly 100 times.

Take `CC[C@H](/C=C/[C@@H](C)[C@H]1CC[C@H]2[C@@H]3CCC4=CC(=O)CC[C@]4(C)[C@H]3CC[C@]12C)C(C)C` [Compound 5, stigmast-4,22-dien-3-one]: the “antileishmanial activity against promastigotes (in words)” value in assay [2] is “inactive”. Besides, the “antileishmanial activity against the amastigote stage (in words)” value in assay [3] was “inactive”.

As for `C=C(CC[C@@H](C)[C@H]1CC[C@H]2[C@@H]3CCC4=CC(=O)CC[C@]4(C)[C@H]3CC[C@]12C)C(C)C` [Compound 3, 24-methylcholesta-4,24(28)-dien-3-one], the “electron microscopy findings” value in assay [1] was “morphological abnormalities and destruction of the amastigotes”. Moreover, the “antileishmanial activity against promastigotes (in words)” value in assay [2] is given as “significant leishmanicidal activity; also recorded: inhibitory effects”. Also, the IC50 is 24 µM in assay [2] (setting [6]) and 3.5 µM in assay [3].

For the compound `CC(=O)C1=CC[C@H]2[C@@H]3C=CC4=CC(=O)CC[C@]4(C)[C@H]3C[C@@H](O)[C@]12C` [Compound 16, neridienone], the “electron microscopy findings” value in assay [1] was “morphological abnormalities and destruction of the amastigotes”. Further, the “antileishmanial activity against promastigotes (in words)” value in assay [2] is “significant leishmanicidal activity; also recorded: inhibitory effects”. Moreover, in assay [2] (read-out: Promastigote IC50, 48 hours in culture), the IC50 is 9.2 µM.

The values are drawn from US10174072B2, “Antileishmanial compositions and methods of use” (Ohio State Innovation Foundation, priority 2011, dated 2019).
